Reference: paper PMC8241168, “Cholesterol–PEG comodified poly (N-butyl) cyanoacrylate nanoparticles for brain delivery: in vitro and in vivo evaluations” (Drug Delivery, 2017)

Experiments:
bEnd.3 cells = test: Uptake of C6 CLS-PEG NPs by bEnd.3 cells; assay type: cell-based, mouse; conditions: 20–100 μg/mL, 37 °C, 30 min to 4 h
Description: BEnd. 3 cells were seeded into a 6-well plate and cultured for 24 h. Then, the medium was replaced with different concentrations (20–100 μg/mL) of free C6 or CLS-PEG NPs encapsulated with C6, and incubated at 37 °C for 2 h. To study the effects of incubation time on CLS-PEG NPs uptake, the CLS-PEG NPs loaded C6 (50 μg/mL) and the free C6 solution were added into the wells, and the plate was incubated at 37 °C for 30 min, 1 h, 2 h, or 4 h. At the end of the experiment, the cells were washed with ice-cold PBS three times. Subsequently, the cells were lysed with cell lysate (Beijing Saichi Biotechnology Co., Ltd., China). The quantitative measurement of intracellular C6 in bEnd.3 cell lysates was analyzed by a fluorescence microplate reader as described earlier. Total cell protein concentrations of the bEnd.3 cells were determined using a BCA protein assay (Beijing Kangwei Century Biotechnology Co., Ltd., China). The uptake of CLS-PEG NPs by bEnd.3 cells was calculated and expressed as the amount of CLS-PEG NPs (μg) taken up per mg of cell protein.

[1] = Specificity to the brain, confocal laser scanning microscopy of brain sections; assay type: in vivo; conditions: rats, IV, 0.5 h after dosing
Description: Subsequently, the brain tissues were removed, washed with PBS, and fixed in 4% formaldehyde solution. After snap freezing in liquid nitrogen, the samples were embedded in […]. compound (Sakura Finetechnical, Tokyo, Japan) and cut into thin sections (10 μm). The slices were stained for cell nuclei with DAPI for 15 min in the dark and then washed three times with cold PBS. The sample was monitored by confocal laser scanning microscopy (Zeiss LSM710, Göttingen, Germany). ZEN Image Software 2012 was used to perform the image recording and image analysis. The image included 512 × 512 pixels measuring 2.77 × 2.77 μm^2.

[2] = Pharmacokinetic study, plasma C6 after IV administration; assay type: in vivo; conditions: rats, IV 0.5 mg/kg
Description: Wistar rats (180–200 g) were obtained from the Institute of Laboratory Animal Science, Chinese Academy of Medical Sciences, Beijing, China, and all animal experiments were performed in accordance with the regulations of the Animal Care and Use Committee of the Chinese Academy of Medical Sciences. […] A standard diet of food and water was supplied ad libitum during the experiments. A polyethylene catheter (Portex, Hythe, UK) was inserted through the right jugular veins of all rats one day prior to the pharmacokinetic experiment, and flushed with 100 U/mL heparin in 0.9% saline. […] Subsequently, 100 μL of plasma was obtained by centrifugation at 5000 rpm for 7 min at 0 °C, and the serum was collected. The measurement of C6 in the samples was analyzed by a fluorescence microplate reader as described earlier.

[3] = Tissue distribution studies after IV administration; assay type: in vivo, rats; conditions: IV 0.5 mg/kg; for Tmax / AUC0-t / Cmax: C6, rats; for AUC0-t / Cmax: n = 3
Description: Wistar rats (180–200 g) were obtained from the Institute of Laboratory Animal Science, Chinese Academy of Medical Sciences, Beijing, China, and all animal experiments were performed in accordance with the regulations of the Animal Care and Use Committee of the Chinese Academy of Medical Sciences. […] A standard diet of food and water was supplied ad libitum during the experiments. […] The samples were stored at −20 °C until further analysis. The drug-targeting index (DTI) is considered an important parameter for tissue targeting efficiency, and was calculated using the following formula: DTI=AUCx/AUCp(NPs)/AUCx/AUCP(Free drug) Where “AUCx” is the AUC of tissue x, and “AUCp” is the AUC of the plasma.

Which “cellular uptake by bEnd.3 cells” value (bEnd.3 cells) does the source give for CCN(CC)c1ccc2cc(-c3nc4ccccc4s3)c(=O)oc2c1 [Free drug, coumarin-6] here?
Its value is “only minimally entered the cells”.

What about the “C6 fluorescent signal in the brain” value [1] of the same compound?
Its value is “too weak to be distinguished”.

What about the AUC0-t ([2]; C6 in plasma, n = 6) of the same compound?
Its AUC0-t is 15.8 ± 2.4 µg·min/mL.

And the “AUC0-∞” value ([2]; C6 in plasma, n = 6)?
Its value is 16.0 ± 2.3 µg·min/mL.

What about the C0 ([2]; C6 in plasma, n = 6) of the same compound?
Its C0 is 828.4 ± 139.0 ng/mL.

And the CL ([2]; C6 in plasma, n = 6)?
Its CL is 6.4 ± 0.9 mL/min.

What about the “Vd, λz” value ([2]; C6 in plasma, n = 6) of the same compound?
Its value is 0.6 ± 0.3 L.

And the “t1/2, λz” value ([2]; C6 in plasma, n = 6)?
Its value is 60.1 ± 24.0 min.

What about the “time after injection at which C6 was undetectable in plasma” value [2] of the same compound?
Its value is 4 h.

What about the Tmax ([3]; Brain) of the same compound?
Its Tmax is 30 min.

And the AUC0-t ([3]; Brain)?
The AUC0-t was 3.84 ± 0.21 µg·min/mL.

And the Cmax ([3]; Brain)?
The Cmax was 45.64 ± 2.25 ng/g.

And the Tmax ([3]; Heart)?
The Tmax was 15 min.

What about the AUC0-t ([3]; Heart) of the same compound?
Its AUC0-t is 8.45 ± 0.93 µg·min/mL.

And the Cmax ([3]; Heart)?
Its Cmax is 113.89 ± 16.48 ng/g.

And the Tmax ([3]; Kidney)?
The Tmax was 30 min.

What about the AUC0-t ([3]; Kidney) of the same compound?
The AUC0-t was 2.56 ± 0.44 µg·min/mL.

And the Cmax ([3]; Kidney)?
The Cmax was 22.20 ± 1.91 ng/g.

And the Tmax ([3]; Liver)?
The Tmax was 15 min.

And the AUC0-t ([3]; Liver)?
Its AUC0-t is 141.71 ± 13.25 µg·min/mL.

What about the Cmax ([3]; Liver) of the same compound?
Its Cmax is 2685.53 ± 356.67 ng/g.

And the Tmax ([3]; Lung)?
The Tmax was 30 min.

And the AUC0-t ([3]; Lung)?
Its AUC0-t is 63.88 ± 5.62 µg·min/mL.

What about the Cmax ([3]; Lung) of the same compound?
Its Cmax is 900.02 ± 67.86 ng/g.

What about the Tmax ([3]; Spleen) of the same compound?
The Tmax was 15 min.

What about the AUC0-t ([3]; Spleen) of the same compound?
The AUC0-t was 271.02 ± 16.03 µg·min/mL.

And the Cmax ([3]; Spleen)?
Its Cmax is 3848.83 ± 339.27 ng/g.

What about the “distribution of C6 in the brain” value ([3]; rats) of the same compound?
The value was “very little distribution in the brain”.
